Test results published in patent US8680282B2, “Cyclic inhibitors of carnitine palmitoyltransferase and treating cancer” (University Health Network, priority 2007, dated 2014).

Tests used:
[1] = biological target: T1, human CPT1A (Homo sapiens, UniProt P50416); assay: Human CPT1A LC/MS assay; format: biochemical; details: human CPT1A LC/MS assay, dose response format
T1 construct: made in house; host or cells: Saccharomyces cerevisiae (pESC-trp) or cultured mammalian cells (pCDNA3.1); mitochondrial extract
T1 sequence (P50416 1-773): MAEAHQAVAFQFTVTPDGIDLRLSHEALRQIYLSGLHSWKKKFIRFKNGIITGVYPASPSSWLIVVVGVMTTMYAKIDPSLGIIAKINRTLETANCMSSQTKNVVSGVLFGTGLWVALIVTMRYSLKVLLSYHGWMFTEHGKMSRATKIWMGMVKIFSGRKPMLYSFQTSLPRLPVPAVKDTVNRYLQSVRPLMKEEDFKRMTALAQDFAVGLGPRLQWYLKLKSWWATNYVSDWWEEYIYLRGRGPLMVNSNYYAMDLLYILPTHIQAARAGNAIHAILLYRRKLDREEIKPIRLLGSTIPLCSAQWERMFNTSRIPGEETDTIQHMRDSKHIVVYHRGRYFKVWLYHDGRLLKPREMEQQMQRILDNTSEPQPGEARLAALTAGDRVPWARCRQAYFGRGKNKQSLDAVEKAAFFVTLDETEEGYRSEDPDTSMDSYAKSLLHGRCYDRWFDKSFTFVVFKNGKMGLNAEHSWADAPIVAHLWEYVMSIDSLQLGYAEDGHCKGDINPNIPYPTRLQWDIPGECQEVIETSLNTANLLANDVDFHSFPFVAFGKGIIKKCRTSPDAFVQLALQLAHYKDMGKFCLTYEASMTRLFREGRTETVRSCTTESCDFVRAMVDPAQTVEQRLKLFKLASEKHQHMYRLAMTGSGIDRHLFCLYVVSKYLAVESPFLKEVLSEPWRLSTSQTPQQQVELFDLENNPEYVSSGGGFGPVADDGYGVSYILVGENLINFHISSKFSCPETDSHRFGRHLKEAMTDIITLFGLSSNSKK
Excerpt: Nucleotide sequences encoding human CPT1 enzymes were individually cloned into the yeast expression vector pESC-trp at the Cla1 (5′ terminus) and Pac1 (3′ terminus) restriction sites by PCR amplification of the open reading frame using oligonucleotide primers designed to encode the wild-type CPT1 protein sequence. Standard molecular biology techniques were used to transform and express the CPT1 proteins in the yeast Saccharomyces cerevisiae. The yeast cells were lysed by enzymatic degradation of the cell wall by Zymolase, and the mitochondria were isolated by standard biochemical techniques. The integrity of the isolated mitochondria was monitored by determining the activity of succinate dehydrogenase in the mitochondrial preparations. The mitochondrial extracts were stored at −80° C. in buffer containing 10 mM HEPES pH 7.4 and 250 mM sucrose.
Human CPT1 (A, B, C) genes were additionally cloned into the pCDNA3.1 vector individually for expression in cultured mammalian cells. Cells expressing the exogenous CPT1A were identified and grown under standard conditions. Mammalian cells were harvested, and mitochondrial extracts prepared using standard biochemical methods. The mitochondrial extracts were stored at −80° C. in buffer containing 10 mM HEPES pH 7.4 and 250 mM sucrose.
Assays were performed in 96-well plate format. Each 100 μL reaction contained 40 mM KCl, 50 mM TrisHCl pH 7.5, and 250 mM mannitol (Assay Buffer), and 1.6 μg protein of an extract, 20 μM palmitoyl-CoA, 50 μM L-carnitine, and 10 ug/mL BSA. Reactions were incubated at room temperature and stopped after 10 minutes by extraction with 200 μL of water saturated n-butanol containing myristoyl carnitine (500 nM) as an internal standard. The samples were thoroughly mixed, and the phases separated by centrifugation. Samples were prepared for analysis with a 10 fold dilution of the n-butanol phase containing the reaction product palmitoyl carnitine into a 50:50 (acetonitrile:water) solvent for analysis. 5 μL of prepared sample was separated on a Phenomenex Jupiter 5μ C4 reverse-phase column using an Agilent 1100 HPLC with a gradient from 50% acetonitrile (0.5% acetic acid) to 100% acetonitrile and quantified by detection with a Bruker Esquire 3000plus mass spectrometer. The abundance of the palmitoyl carnitine product was determined relative to the internal standard and the actual quantity of palmitoyl carnitine can be determined from a standard curve prepared using the n-butanol solution containing the internal standard.
Compounds were evaluated in two formats, a screening format, and a dose response format. The screening format was performed by adding 25 μL compound in 20% DMSO and Assay Buffer to 25 μL of extract containing […] and Assay Buffer, followed by a 10 minute incubation at room temperature. 50 μL of 40 μM palmitoyl-CoA in Assay Buffer was added to the reaction mixture, mixed and incubated for 10 minutes at room temperature. A negative control for activity was also performed where the carnitine was omitted from the reaction. A positive control for activity was also performed by omitting compound from the solution containing 20% DMSO and Assay Buffer. The reaction mixture was extracted and analyzed as described above. The inhibition by compound was determined by comparing the control relative activity to the relative activity observed in wells containing the compound. Relative activity was determined by subtracting the relative intensity (area palmitoyl carnitine/area myristoyl carnitine) observed in the negative control from the relative intensity observed in the experimental well, and dividing by the relative activity observed in the positive control.
[formula] Compound characterization by dose response format was performed using the above described assay conditions and a 16 point compound titration in 2 fold compound dilution steps. The DMSO concentration was kept constant at 20% (v/v) for all compound concentrations.

[2] = tested on: COLO-205; assay: Cancer cell growth inhibition, SRB assay; format: cell-based, human; details: SRB at Day 6; for Percentage of Growth Inhibition: COLO-205, at 10 μM, NE = no activity at 10 micromolar; for GI50: Homo sapiens, 144 h, COLO-205 (Colon), triplicate
[3] = tested on: SW480; assay: Cancer cell growth inhibition, SRB assay; format: cell-based, human; details: SRB at Day 6; for Percentage of Growth Inhibition: SW480, at 10 μM, NE = no activity at 10 micromolar; for GI50: Homo sapiens, 144 h, SW480 (Colon), triplicate
[4] = tested on: SW620; assay: Cancer cell growth inhibition, SRB assay; format: cell-based, human; parameters: Percentage of Growth Inhibition: scale not given here; details: SRB at Day 6; for Percentage of Growth Inhibition: SW620, at 10 μM, NE = no activity at 10 micromolar; for GI50: Homo sapiens, SW-620, 144 h, SW620 (Colon), triplicate
[5] = tested on: A549; assay: Cancer cell growth inhibition, SRB assay; format: cell-based, human; parameters: Percentage of Growth Inhibition: scale not given here; details: SRB at Day 6; for Percentage of Growth Inhibition: A549, at 10 μM, NE = no activity at 10 micromolar; for GI50: Homo sapiens, 144 h, A549 (Lung), triplicate
[6] = tested on: HCT-15; assay: Cancer cell growth inhibition, SRB assay; format: cell-based, human; parameters: Percentage of Growth Inhibition: scale not given here; details: SRB at Day 6; for GI50: Homo sapiens, 144 h, HCT-15 (Colon), triplicate; for Percentage of Growth Inhibition: HCT-15, at 10 μM, NE = no activity at 10 micromolar

SMILES	IC50 [1] [µM]	Percentage of Growth Inhibition [2] [%]	Percentage of Growth Inhibition [3] [%]	Percentage of Growth Inhibition [4] [%]	Percentage of Growth Inhibition [5] [%]	GI50 [5] [µM]	GI50 [2] [µM]	GI50 [6] [µM]	GI50 [3] [µM]	GI50 [4] [µM]	Percentage of Growth Inhibition [6] [%]
O=C(O)CC1(NC(=O)c2ccc(C#Cc3ccccc3)o2)CNC1 [Example S26, 3-(carboxymethyl)-3-(5-(phenylethynyl)furan-2-carboxamido)-azetidinium 2,2,2-trifluoroacetate]	100 to 1000	0.1892	0.04449	0.0551	–	–	–	–	–	–	–
C[N+]1(C)CCC(CC(=O)O)(NC(=O)c2ccc(C#Cc3ccccc3)o2)CC1 [Example S6, 4-(Carboxymethyl)-1,1-dimethyl-4-(5-(phenylethynyl)furan-2-carboxamido)-piperidinium 2,2,2-trifluoroacetate]	100 to 1000	0.1543	0.03677	0.05805	–	–	–	–	–	–	–
CCCCCCCCc1ccc(NC(=O)NC2(CC(=O)O)CCC[NH+](C)C2)cc1 (stereo not drawn) [Example S9, 3-(Carboxymethyl)-1-methyl-3-(3-(4-octylphenyl)ureido)piperidinium 2,2,2-trifluoroacetate]	10 to 100	0.2852	0.00756	0.04904	0.451	–	–	–	–	–	–
CCCCCc1ccc(S(=O)(=O)NC2(CC(=O)O)C[N+](C)(C)C2)cc1 [Example S29, 3-(carboxymethyl)-1,1-dimethyl-3-(4-pentylphenylsulfonamido)-azetidinium 2,2,2-trifluoroacetate]	10 to 100	–	–	–	–	> 50	28	> 50	> 50	> 77	–
CCCCCCCCc1ccc(NC(=O)NC2(CC(=O)O)CC[N+](C)(C)CC2)cc1 [Example S2, 4-(Carboxymethyl)-1,1-dimethyl-4-(3-(4-octylphenyl)ureido)piperidinium 2,2,2-trifluoroacetate]	10 to 100	–	–	–	–	99	1.3	3	0.7	2	–
C[N+]1(C)CCC(CC(=O)O)(NC(=O)c2ccc(CCc3ccccc3)o2)CC1 [Example S5, 4-(Carboxymethyl)-1,1-dimethyl-4-(5-phenethylfuran-2-carboxamido)-piperidinium 2,2,2-trifluoroacetate]	1 to 10	0.1219	–	0.05572	–	–	–	–	–	–	–
CCCCCCCCc1ccc(NS(=O)(=O)NC2(CC(=O)O)CCCN(C)C2)cc1 (stereo not drawn) [Example S15, 3-(carboxymethyl)-1-methyl-3-(N-(4-octylphenyl)sulfamoylamino)-piperidinium 2,2,2-trifluoroacetate]	10 to 100	–	–	–	–	7.5	21	32	36	27	–
CCCCCc1ccc(S(=O)(=O)NC2(CC(=O)O)CC[N+](C)(C)CC2)cc1 [Example S4, 4-(Carboxymethyl)-1,1-dimethyl-4-(4-pentylphenylsulfonamido)piperidinium 2,2,2-trifluoroacetate]	≤ 1	–	–	–	–	–	> 50	> 50	> 50	> 50	–
CCCCCCCCc1ccc(N(C)S(=O)(=O)NC2(CC(=O)O)CCC[N+](C)(C)C2)cc1 (stereo not drawn) [Example S30, 3-(carboxymethyl)-1,1-dimethyl-3-(N-methyl-N-(4-octylphenyl)-sulfamoylamino)piperidinium 2,2,2-trifluoroacetate]	10 to 100	–	–	–	–	1	1.6	14	3.5	3.5	–
CCCCCc1ccc(S(=O)(=O)NC2(CC(=O)O)CCN(C)CC2)cc1 [Example S3, 4-(carboxymethyl)-1-methyl-4-(4-pentylphenylsulfonamido)piperidinium 2,2,2-trifluoroacetate]	10 to 100	0.03424	0.0383	0.03948	–	–	–	–	–	–	0.06515
CCCCCc1ccc(S(=O)(=O)NC2(CC(=O)O)CN(C)C2)cc1 [Example S27, 3-(carboxymethyl)-1-methyl-3-(4-pentylphenylsulfonamido)azetidinium 2,2,2-trifluoroacetate]	10 to 100	–	–	–	0.06854	–	–	–	–	–	–
CCCCCCCCCCc1ccc(C(=O)NC2(CC(=O)O)CC[N+](C)(C)C2)cc1 (stereo not drawn) [Example S22, 3-(Carboxymethyl)-3-(4-decylbenzamido)-1,1-dimethylpyrrolidinium 2,2,2-trifluoroacetate]	1 to 10	0.08112	0.6141	0.2089	–	–	–	–	–	–	0.07473
CCCCCc1ccc(S(=O)(=O)NC2(CC(=O)O)CC[N+](C)(C)C2)cc1 (stereo not drawn) [Example S20, 3-(carboxymethyl)-1,1-dimethyl-3-(4-pentylphenylsulfonamido)-pyrrolidinium 2,2,2-trifluoroacetate]	1 to 10	0.3647	0.02596	0.01263	–	–	–	–	–	–	–
CCCCCCCCCCc1ccc(C(=O)NC2(CC(=O)O)CCN(C)C2)cc1 (stereo not drawn) [Example S21, 3-(carboxymethyl)-3-(4-decylbenzamido)-1-methylpyrrolidinium 2,2,2-trifluoroacetate]	10 to 100	0.02151	0.09568	0.07327	–	–	–	–	–	–	0.04235
